Format in all cases: biochemical
Assay [1] has as its target T1, MMP-3 (Homo sapiens, UniProt P08254).
T1 construct: C-terminal truncated cDNA in which the cDNA encodes human prostromelysin; made in house; host or cells: E. coli
As to the kind of experiment: Test 1 Test on MMP-3 inhibiting activity (fluorogenic peptide substrate). The note with it: activated MMP-3, 37° C.; read-out: MMP-3 inhibition activity value. The method, then: Test 1 Test on MMP-3 Inhibiting Activity
C-terminal truncated cDNA in which the cDNA encodes human prostromelysin, was subcloned (proMMP-3, cDNA sequence in Nature, 348, 699-704 (1990)), was expressed in E. coli and then, the expressed protein was purified in accordance with the method described in Biochemistry 30, 6476-6483 (1991). proMMP-3 activation was carried out by treating with 1 mM 4-aminophenyl mercuric acetate for 60 minutes at 37° C.
Enzyme activity test was conducted by the method of C. G. Knight (FEBS Lett., 296(3), 263-266 (1992)).
(§1) A mixture of activated MMP-3 (20 nM, 10 μl), buffer solution (70 μl, pH 7.5 solution containing 100 mM Tris-HCl solution, 10 mM calcium chloride solution, 100 mM sodium chloride solution and 0.05% Brij-35 solution), MOCAc-Pro-Leu-Gly-Leu-A2pr(DNP)-Ala-Arg-NH2 in 0.1% DMSO solution (100 μM, 10 μl) and a test compound in DMSO solution was incubated for 1.5 hours at 37° C. The mixture was put on a 96 well-plate (100 μl/well) and the plate was cultured at 37° C. The enzyme activity in the presence of the compound was measured based on fluorescence intensity (λex 320 nm, λem 405 nm), and IC50 was calculated.

For assay [2], the target named is T2, MMP-13 (Homo sapiens, UniProt P45452).
T2 construct: a fragment of 767 bp encoding original 84 amino acids of complete MMP-13 and encoding 164 amino acids; made in house; host or cells: E. coli BL21 (DE3), pET11a
As to the kind of experiment: Test 2 Test on MMP-13 inhibition activity (fluorogenic peptide substrate). The note with it: activated MMP-13, 37° C.
Description: Test 2 Test on MMP-13 Inhibition Activity
In order to subcloning C-terminal truncated cDNA in which the cDNA encodes procollagenase-3 (proMMP-13) (J. Biol. Chem., 269(24), 16766-16773 (1994)), two synthesized oligonucleotide primer fragments: • (5′-[…]-3′ and 5′-[…]-3′: In former the sequence for specific NdeI site (under line) including first methionine is included, and in latter terminal codon and BamHI site (under lined) are included.) were used with human cartilage cell cDNA library for PCR. Due to these primers and Pfu DNA polymelase (STRATAGENE) for PCR, there was obtained a fragment of 767 bp encoding original 84 amino acids of complete MMP-13 and encoding 164 amino acids. The said fragment was cut out with digestion by NdeI and BamHI, and the fragment was annealed to NdeI site and BamHI site of pET11a (STRATAGENE). The recombinant plasmid was transformed into E. coli BL21 (DE3) and the bacteria were cultivated. The crude cell extract was prepared according to the method of Biochemistry. The said extract was dialyzed with 20 mM Tris-HCl (pH 7.2)/5 mM CaCl2/0.02% NaN3 solution, treated with SP-sepharose HP column (1.6×10 cm, Amasham-Pharmacia biotec), and the eluting was carried out by liner gradient from 0 to 0.3 m of sodium chloride solution (50 ml) (partially purified proMMP-13 was eluted at about 0.2M.) The eluted fraction was dialyzed with 20 mM Tris-HCl (pH 7.9)/5 mM CaCl2/200 mM (NH4)2SO4/0.02% NaN3 solution, treated with phenylsepharose HP column (1.6×5 cm, Amersham-Pharmacia biotec), and the eluting was carried out by liner gradient from 0.2M to 0M sulfuric acid ammonium solution (purified proMMP-13 was eluted at about 50 mM.). The eluted fraction was concentrated by YM-5 ultrafilter membrane, and activated by 4-aminophenyl mercuric acetate. Activated MMP-13 was treated with gel filtration chromatography in accordance with the method of Biochemistry to be separated from propeptide. Inhibiting Test Method
Enzyme activity test was carried out by the method of G. Knight (FEBS Lett., 296(3), 263-266 (1992)).
as §1, with “MMP-13” for “MMP-3”, “Briji-35” for “Brij-35”, “μl/wel),” for “μl/well)”, “incubated” for “cultured”

Assay [3] addresses T3, MMP-14 (MT1-MMP) (Homo sapiens, UniProt P50281).
T3 construct: purchased Biogenesis, supplied by Cosmobio (Nakarai Tesku)
As to the kind of experiment: Test 5 MMP-14 (MT1-MMP) inhibiting activity test. The note with it: human recombinant MT1-MMP, 37° C.; read-out: MMP-14 inhibition activity value. The method, then:
Test 5 MMP-14 (MTI-MMP) Inhibiting Activity Test
Human recombinant MTI-MMP used the product prepared by Biogenesis and supplied by Cosmobio (Nakarai Tesku).
An assay buffer solution (70 μl, pH 7.5 solution containing 0.1M Tris-HCl solution, 0.1M calcium chloride solution, 10 mM sodium chloride solution and 0.05% Brij-35 solution), 0.1 w/w % a compound in DMSO (10 μl), MMP substrate solution (MOCAc-Pro-Leu-Gly-Leu-A2pr(DNP)-Ala-Arg-NH2 (Peptide Lab.) diluted with the assay buffer solution (50 μM, 10 μl)) and human recombinant MT1-MMP (0.4 pg/10 μl/well) were well agitated under stirring. The enzyme activity of the mixture was measured based on fluorescence intensity (λex 320 nm/λem 405 nm) by a fluorescence reader. After the mixture was incubated at 37° C. for 0.5 hour, the fluorescence intensity (λex 320 nm/λem 405 nm) was measured every hour, and IC50 was calculated.
The inhibition value was calculated by withdrawing average value of blank well from fluorescence mean value of well in which MT1-MMP was added. As the blank was used the mixed solution prepared by adding assay buffer (10 μl) instead of MT1-MMP solution.

This passage reports IC50 results from US7504537B2, “Hydroxamic acid derivative and MMP inhibitor containing the same as active ingredient” (Dainippon Sumitomo Pharma Co., Ltd., priority 2001, dated 2009).

T1 sequence (P08254 100-272 limits assumed): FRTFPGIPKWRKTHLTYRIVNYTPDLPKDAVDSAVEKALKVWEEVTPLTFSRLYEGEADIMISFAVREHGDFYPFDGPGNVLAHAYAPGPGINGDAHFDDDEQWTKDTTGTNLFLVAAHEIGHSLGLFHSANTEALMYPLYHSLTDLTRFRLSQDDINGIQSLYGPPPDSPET

For the molecule `CC(C)CN(C1(C(=O)NO)CCCC1)S(=O)(=O)c1ccc(Oc2ccc(S(C)(=O)=O)cc2)cc1` [Example 2, N-hydroxy 1-[isobutyl({4-[4-(methylsulfonyl)phenoxy]phenyl}sulfonyl)amino]cyclopentanecarboxamide], the IC50 in assay [1] came to 21.2 nM; in assay [2], 5.7 nM; in assay [3], 3800 nM.

On to `CC(C)OCCN(CC(=O)NO)S(=O)(=O)c1ccc(Oc2ccc(S(C)(=O)=O)cc2)cc1` [Example 3, N^1-hydroxy-N^2-(2-isopropoxyethyl)-N^2-({4-[4-(methylsulfonyl)phenoxy]phenyl}sulfonyl)glycinamide], for which the IC50 in assay [1] came to 4.8 nM; in assay [2], 0.5 nM; in assay [3], 172 nM.

On to `CC(C)(C(=O)NO)N(Cc1ccccc1)S(=O)(=O)c1ccc(Oc2ccc(S(C)(=O)=O)cc2)cc1` [Example 10, N′^2′-Benzyl-N′^1′-hydroxy-2-methyl-N′^2′-({4-[4-(methylsulfonyl)phenoxy]phenyl}sulfonyl)alaninamide], for which the IC50 in assay [1] was 85.8 nM; in assay [2], 34.4 nM; in assay [3] it was greater than 5000 nM.

On to `CS(=O)(=O)c1ccc(Oc2ccc(S(=O)(=O)N(Cc3ccccc3)C3(C(=O)NO)CCOCC3)cc2)cc1` [Example 12, 4-[Benzyl({4-[4-(methylsulfonyl)phenoxy]phenyl}sulfonyl)amino]-N-hydroxytetrahydoro-2H-pyrane-4-carboxamide], for which the values for the IC50 in assay [1], in assay [2] and in assay [3] were 16 nM, 4 nM and 893 nM, respectively.

Take `CS(=O)(=O)c1ccc(Oc2ccc(S(=O)(=O)NCC(=O)NO)cc2)cc1` [Example 13, N′^1′-Hydroxy-N′^2′-({4-[4-(methylsulfonyl)phenoxy]phenyl}sulfonyl)glycinamide]: the values for the IC50 in assay [1], in assay [2] and in assay [3] were 13.5 nM, 10.8 nM and greater than 5000 nM, respectively.

As to `CC(C)CN(C1(C(=O)NO)CCOCC1)S(=O)(=O)c1ccc(Oc2ccc(S(C)(=O)=O)cc2)cc1` [Example 15, N-Hydroxy-4-[isobutyl({4-[4-(methylsulfonyl)phenoxy]phenyl}sulfonyl)amino]tetrahydro-2H-pyrane-4-carboxamide], the IC50 in assay [1] is 5.2 nM; in assay [2] it was 24.6 nM; in assay [3] it was greater than 5000 nM.

In the case of `CC(C)CN(C1(C(=O)NO)CCC1)S(=O)(=O)c1ccc(Oc2ccc(S(C)(=O)=O)cc2)cc1` [Example 18, N-Hydroxy-1-[isobutyl({4-[4-(methylsulfonyl)phenoxy]phenyl}sulfonyl)amino]cyclobutanecarboxamide], the figures for the IC50 in assay [1], in assay [2] and in assay [3] were 29.9 nM, 3.1 nM and 799 nM, respectively.

Regarding `CCOC(=O)CN(CC(=O)NO)S(=O)(=O)c1ccc(Oc2ccc(S(C)(=O)=O)cc2)cc1` [Example 22, Ethyl N-{[(hydroxyamino)carbonyl]methyl}-N-({4-[4-(methylsulfonyl)phenoxy]phenyl}sulfonyl)-glycinate], the IC50 in assay [1] was 26.6 nM; in assay [2] it was 1.9 nM; in assay [3], 668 nM.

With `CCOC(=O)CN(C1(C(=O)NO)CCCC1)S(=O)(=O)c1ccc(Oc2ccc(S(C)(=O)=O)cc2)cc1` [Example 23, Ethyl N-{1-[(hydroxyamino)carbonyl]cyclopentyl}-N-({4-[4-(methylsulfonyl)phenoxy]phenyl}sulfonyl)glycinate], the IC50 was 21.6 nM in assay [1], 4.1 nM in assay [2] and greater than 5000 nM in assay [3].

On to `CS(=O)(=O)c1ccc(Oc2ccc(S(=O)(=O)N(CC(=O)O)CC(=O)NO)cc2)cc1` [Example 24, N-{[(Hydroxyamino)carbonyl]methyl}-N-({4-[4-(methylsulfonyl)phenoxy]phenyl}sulfonyl)-glycine], for which the IC50 in assay [1] was 128 nM; in assay [2], 16.3 nM; in assay [3], greater than 5000 nM.

With `CCOC(=O)CCN(C1(C(=O)NO)CCCC1)S(=O)(=O)c1ccc(Oc2ccc(S(C)(=O)=O)cc2)cc1` [Example 26, Ethyl N-{1-[(hydroxyamino)carbonyl]cyclopentyl}-N-({4-[4-(methylsulfonyl)phenoxy]phenyl}sulfonyl)-β-alaninate], the IC50 was determined as 14.3 nM in assay [1], 1.9 nM in assay [2] and 395 nM in assay [3].

Consider `CS(=O)(=O)c1ccc(Oc2ccc(S(=O)(=O)N(CCC(=O)O)C3(C(=O)NO)CCCC3)cc2)cc1` [Example 27, N-{1-[(Hydroxyamino)carbonyl]cyclopentyl}-N-({4-[4-(methylsulfonyl)phenoxy]phenyl}sulfonyl)-β-alanine], for which the IC50 in assay [1] is 89.4 nM; in assay [2] it was 21.3 nM; in assay [3], greater than 5000 nM.

Turning to `CCOC(=O)CCN(C1(C(=O)NO)CCOCC1)S(=O)(=O)c1ccc(Oc2ccc(S(C)(=O)=O)cc2)cc1` [Example 31, Ethyl N-{4-[(hydroxyamino)carbonyl]tetrahydro-2H-pyran-4-yl}-N-({4-[4-(methylsulfonyl)phenoxy]phenyl}sulfonyl)-β-alaninate], the IC50 in assay [1] is 59 nM; in assay [2], 11.2 nM; in assay [3] it was greater than 5000 nM.

For `CS(=O)(=O)c1ccc(Oc2ccc(S(=O)(=O)N(CCC(=O)O)CC(=O)NO)cc2)cc1` [Example 36, N-[2-(Hydroxyamino)-2-oxoethyl]-N-({4-[4-(methylsulfonyl)phenoxy]phenyl}sulfonyl)-β-alanine], the IC50 in assay [1] stood at 37.1 nM; in assay [2] it was 3.81 nM; in assay [3], 938 nM.

As for `CS(=O)(=O)c1ccc(Oc2ccc(S(=O)(=O)N(CC(=O)NO)Cc3ccncc3)cc2)cc1` [Example 42, N′^1′-Hydroxy-N′^2′-({4-[4-(methylsulfonyl)phenoxy]phenyl}sulfonyl)-N′^2′-(4-pyridinylmethyl)glycinamide], the IC50 in assay [1] is 67.5 nM; in assay [2], 4.02 nM; in assay [3] it was greater than 5000 nM.
